Laboratory results from article PMC6895180 (Nature Communications, 2019).
Where “and” joins values, the source holds several entries; their conditions need not be identical. Equal entries are not always repeated. Where two headings read alike, the source gives them in different places.

Experiments:
[1] = test system: RNAi clones targeting adenosine kinase (ADKIN; Tb927.6.2300) in T. brucei NY-SM cells; assay: Susceptibility of ADKIN RNAi clones (tetracycline-induced / non-induced); assay type: cell-based, Trypanosoma brucei brucei; details: for IC50: single determinations
Description: Susceptibility assays with NY-SM[51], BS221[48] and TbAT1-KO[48] (derived from BS221) cells were performed using 10 concentrations of a 4-fold compound dilution series starting at 64 µM. Parasites were seeded at 4 × 10^3 parasites per well and exposed to drug compound for 72 h, after which resazurin (final concentration of 10 µg mL^−1) was added to the plates. Fluorescence intensities were determined after 6 h.
The RNAi library[54] was induced for 68 h by the addition of 1 µg mL^−1 of tetracycline. After induction, the cells were exposed to different concentrations of 9 (corresponding to the IC98, IC99). Cells were maintained until a recovery of the resistant population was observed. Genomic DNA of the resistant parasite population was isolated, and the RNAi inserts were identified by PCR amplification, followed by cloning in highly competent Escherichia coli and sequencing. To validate the involvement of the identified genes, the RNAi inserts were back-cloned into a p2T7Bern vector[54] and transformed into NY-SM cells (the background strain of the RNAi library). The transformed NY-SM cells were cloned by limiting dilution. Two clones of each RNAi insert were exposed to tetracycline to induce the RNAi phenotype and subsequently subjected to different concentrations of 9 to determine the susceptibility of induced versus non-induced clones.
Drug susceptibility assays with induced clones were performed as described above for NY-SM cells, with an initial induction period of 68 h with 1 µg mL^−1 tetracycline prior to the start of the drug susceptibility assay.

[2] = test system: bloodstream form T. brucei 427WT; assay: Wash-out experiments with T. brucei; assay type: cell-based, Trypanosoma brucei
Description: Wash-out experiments with T. brucei
A culture of bloodstream form T. brucei 427WT, at mid-log phase of growth, was harvested and resuspended at a density of 10^5 cells mL-1, in fresh medium containing either no test compound, or […]
The cultures were incubated under standard conditions (37 °C/5% CO2) and cell counts were performed manually using a haemocytometer under phase contrast microscopy, every 24 h. The culture in continuous presence of analogue 9 was split in two at 8 h and 48 h (as indicated with arrows in Supplementary Figure S2). The split cultures were centrifuged and resuspended in the same volume of either fresh medium without test compound or fresh medium with the same concentration of compound 9 as before, reincubated. The detection limit for the manual cell count was 10^4 cells mL-1. […]

T. brucei NY-SM cells [3] = assay: RNA quantification (total RNA, RT-qPCR of SL-RNA, 18S rRNA, TERT); assay type: cell-based, Trypanosoma brucei; details: for RNA Yield: RNA Content: Control 1.00; for RNA Yield: 18S rRNA / RNA Yield: SL-RNA / RNA Yield: TERT: Control about 1
Description: After 24 h, the cells were harvested and washed with PBS. […] RNA was extracted using the QIAamp RNA Blood Mini Kit (Qiagen). Total RNA yields were determined using both Nanodrop 2000 spectrometry and Qubit fluorimetric RNA content analysis. Additionally, specific transcripts in the RNA pool were quantified using RT-qPCR targeting the SL-RNA, 18S rRNA and transcripts encoding the telomerase reverse transcriptase (TERT)[28],[56]. A list of primers used is provided in the Supplementary Methods section of the Supplementary Information.

T. brucei NY-SM cells [4] = assay: Cell cycle analysis by flow cytometry; assay type: cell-based, Trypanosoma brucei
Description: After 24 h, the cells were harvested and washed with PBS before staining with Hoechst 33342 at 5 µg mL^−1 for 25 min at 37 °C. Cells were analysed on a MACSQuant flow cytometer (Miltenyi Biotec) using the FlowJo X software package.

For `Nc1ncnc2c1ccn2[C@@H]1O[C@H](CO)C[C@H]1O` [Compound 9, 3’-deoxytubercidin], the “fold reduced susceptibility in ADKIN knockdown cell lines” value [1] was ~ 20 fold, the “Inhibition (%)” value ([1]; ADKIN A +, 0.000976563 µM) was 2.55% and the “Inhibition (%)” value ([1]; ADKIN A +, 0.00390625 µM) was 2.6%. For the same compound, the “Inhibition (%)” value ([1]; ADKIN A +, 0.0625 µM) was 42% and 36% and 30%, the “Inhibition (%)” value ([1]; ADKIN A +, 0.25 µM) was 91% and 95% and the “Inhibition (%)” value ([1]; ADKIN B +, 0.25 µM) was 93% and 91% and 98%. The inhibition at 0.0625 µM ([1]; Trypanosoma brucei, ADKIN A +, 0.0625 µM) was 33%, the inhibition at 0.25 µM ([1]; Trypanosoma brucei, ADKIN A +, 0.25 µM) was 94% and the inhibition at 1 µM ([1]; Trypanosoma brucei, ADKIN A +) was 99%. For the same compound, the inhibition at 4 µM ([1]; Trypanosoma brucei, ADKIN A +) was 99%, the inhibition at 16 µM ([1]; Trypanosoma brucei, ADKIN A +) was 100% and the inhibition at 64 µM ([1]; Trypanosoma brucei, ADKIN A +) was 99%. It also gave an inhibition at 0.000244141 µM ([1]; Trypanosoma brucei, ADKIN B +, 0.000244141 µM) of 0%, an inhibition at 0.000976563 µM ([1]; Trypanosoma brucei, ADKIN B +, 0.000976563 µM) of 0% and an inhibition at 0.00390625 µM ([1]; Trypanosoma brucei, ADKIN B +, 0.00390625 µM) of 0%. It also gave an inhibition at 0.015625 µM ([1]; Trypanosoma brucei, ADKIN B +, 0.015625 µM) of 0%, an inhibition at 0.25 µM ([1]; Trypanosoma brucei, ADKIN B +, 0.25 µM) of 96% and an inhibition at 1 µM ([1]; Trypanosoma brucei, ADKIN B +) of 99%. It also gave an inhibition at 4 µM ([1]; Trypanosoma brucei, ADKIN B +) of 99%, an inhibition at 16 µM ([1]; Trypanosoma brucei, ADKIN B +) of 100% and an inhibition at 64 µM ([1]; Trypanosoma brucei, ADKIN B +) of 100%. For the same compound, the EC50 ([1]; Trypanosoma brucei, read-out: EC50, ADKIN RNAi clones before knockdown) was 7.7 ± 0.17 nM, the EC50 ([1]; Trypanosoma brucei, read-out: EC50 upon ADKIN knockdown) was 100 ± 5 nM and the IC50 ([1]; Trypanosoma brucei, read-out: IC50, ADKIN A +, clone A, tetracycline-induced) was 101 nM. The IC50 ([1]; Trypanosoma brucei, read-out: IC50, ADKIN A -, clone A, non-induced) was 6.9 nM, the IC50 ([1]; Trypanosoma brucei, read-out: IC50, ADKIN B +, clone B, tetracycline-induced) was 98.5 nM and the IC50 ([1]; read-out: IC50, ADKIN A +, clone A, tetracycline-induced) was 117 nM and 123 nM and 92 nM and 78.4 nM and 88.9 nM and 95.7 nM and 111 nM. For the same compound, the IC50 ([1]; read-out: IC50, ADKIN A -, clone A, non-induced) was 7.7 nM and 7.2 nM and 8.1 nM and 7.9 nM and 8.3 nM and 7.8 nM and 7.4 nM, the IC50 ([1]; read-out: IC50, ADKIN B +, clone B, tetracycline-induced) was 110 nM and 121 nM and 120 nM (2×) and 109 nM and 132 nM and 127 nM and the “parasites recovered after wash-out” value ([2]; 0.500 µM, 48 h of exposure and subsequent removal, up to 120 h) was “no parasites were recovered”. For the same compound, the Manual cell count ([2]; Exp. 1, 0.165 µM, 8 h wash, 8 h) was 60000 cells mL-1, the Manual cell count ([2]; Exp. 1, 0.165 µM, 8 h wash, 24 h) was 10000 cells mL-1 and the Manual cell count ([2]; Exp. 1, 0.165 µM, 8 h wash, 48 h) was 40000 cells mL-1. For the same compound, the Manual cell count ([2]; Exp. 1, 0.165 µM, 8 h wash, 72 h) was 600000 cells mL-1, the Manual cell count ([2]; Exp. 1, 0.165 µM, 8 h wash, 96 h) was 3800000 cells mL-1 and the Manual cell count ([2]; Exp. 1, 0.165 µM, 8 h wash, 120 h) was 1300000 cells mL-1. For the same compound, the Manual cell count ([2]; Exp. 1, 0.165 µM, 48 h wash, 72 h) was 20000 cells mL-1, the Manual cell count ([2]; Exp. 1, 0.165 µM, 48 h wash, 96 h) was 40000 cells mL-1 and the Manual cell count ([2]; Exp. 1, 0.165 µM, 48 h wash, 120 h) was 280000 cells mL-1. The Manual cell count ([2]; Exp. 1, 0.165 µM, Continuous, 8 h) was 120000 cells mL-1, the Manual cell count ([2]; Exp. 1, 0.165 µM, Continuous, 96 h) was 10000 cells mL-1 and the Manual cell count ([2]; Exp. 1, 0.165 µM, Continuous, 120 h) was 30000 cells mL-1. It also gave a Manual cell count ([2]; Exp. 2, 0.500 µM, 8 h wash, 8 h) of 55000 cells mL-1, a Manual cell count ([2]; Exp. 2, 0.500 µM, 8 h wash, 24 h) of 10000 cells mL-1 and a Manual cell count ([2]; Exp. 2, 0.500 µM, 8 h wash, 48 h) of 10000 cells mL-1. It also gave a Manual cell count ([2]; Exp. 2, 0.500 µM, 8 h wash, 72 h) of 10000 cells mL-1, a Manual cell count ([2]; Exp. 2, 0.500 µM, 8 h wash, 96 h) of 30000 cells mL-1 and a Manual cell count ([2]; Exp. 2, 0.500 µM, 8 h wash, 120 h) of 430000 cells mL-1. The Manual cell count ([2]; Exp. 2, 0.500 µM, Continuous, 8 h) was 110000 cells mL-1, the “RNA Yield: RNA Content” value (T. brucei NY-SM cells [3]; 1.4 nM) was 1.35 and 1.46 and the “RNA Yield: 18S rRNA” value (T. brucei NY-SM cells [3]; 1.4 nM) was 0.9222 and 0.9324 and 0.9996 and 1.001. For the same compound, the “RNA Yield: SL-RNA” value (T. brucei NY-SM cells [3]; 1.4 nM) was 0.789 and 0.7785 and 0.978 and 0.9385, the “RNA Yield: TERT” value (T. brucei NY-SM cells [3]; 1.4 nM) was 0.9232 and 0.9182 and 1.015 and 1.009 and the “RNA Yield: RNA Content” value (T. brucei NY-SM cells [3]; 3.5 nM) was 0.81 and 1.07. The “RNA Yield: 18S rRNA” value (T. brucei NY-SM cells [3]; 3.5 nM) was 0.9119 and 1.014 and 1.009 and 1.044, the “RNA Yield: SL-RNA” value (T. brucei NY-SM cells [3]; 3.5 nM) was 0.7939 and 0.7953 and 1.021 and 1.016 and the “RNA Yield: TERT” value (T. brucei NY-SM cells [3]; 3.5 nM) was 0.9429 and 0.9282 and 1.046 and 1.035. For the same compound, the “RNA Yield: RNA Content” value (T. brucei NY-SM cells [3]; 7 nM) was 0.50 and 0.86, the “RNA Yield: 18S rRNA” value (T. brucei NY-SM cells [3]; 7 nM) was 1.036 and 1.037 and the “RNA Yield: SL-RNA” value (T. brucei NY-SM cells [3]; 7 nM) was 1.052 and 1.049. For the same compound, the “RNA Yield: TERT” value (T. brucei NY-SM cells [3]; 7 nM) was 1.046 and 1.042, the “impact on RNA synthesis” value (T. brucei NY-SM cells [3]; 24 h, various concentrations) was “absence of a major impact on the total RNA pool and the levels of specific transcripts” and the “# cells 2N” value (T. brucei NY-SM cells [4]; 1.4 nM) was 18946 and 19862. For the same compound, the “# cells 4N” value (T. brucei NY-SM cells [4]; 1.4 nM) was 4825 and 4846, the “# cells S” value (T. brucei NY-SM cells [4]; 1.4 nM) was 16441 and 16011 and the “% of cells 2N” value (T. brucei NY-SM cells [4]; 1.4 nM) was 44.3% and 46.2%. The “% of cells 4N” value (T. brucei NY-SM cells [4]; 1.4 nM) was 11.3%, the “% of cells S” value (T. brucei NY-SM cells [4]; 1.4 nM) was 38.5% and 37.2% and the “# cells 2N” value (T. brucei NY-SM cells [4]; 3.5 nM) was 19884 and 19251. The “# cells 4N” value (T. brucei NY-SM cells [4]; 3.5 nM) was 4669 and 4555, the “# cells S” value (T. brucei NY-SM cells [4]; 3.5 nM) was 15056 and 15140 and the “% of cells 2N” value (T. brucei NY-SM cells [4]; 3.5 nM) was 47.3% and 46.7%. The “% of cells 4N” value (T. brucei NY-SM cells [4]; 3.5 nM) was 11.1%, the “% of cells S” value (T. brucei NY-SM cells [4]; 3.5 nM) was 35.9% and 36.8% and the “# cells 2N” value (T. brucei NY-SM cells [4]; 7 nM) was 18100 and 17699. For the same compound, the “# cells 4N” value (T. brucei NY-SM cells [4]; 7 nM) was 3787 and 3626, the “# cells S” value (T. brucei NY-SM cells [4]; 7 nM) was 10717 and 10604 and the “% of cells 2N” value (T. brucei NY-SM cells [4]; 7 nM) was 51.1% and 50%. The “% of cells 4N” value (T. brucei NY-SM cells [4]; 7 nM) was 10.7% and 10.2%, the “% of cells S” value (T. brucei NY-SM cells [4]; 7 nM) was 30.2% and 29.9% and the “cell cycle analysis: impact on DNA synthesis” value (T. brucei NY-SM cells [4]; 24 h, various concentrations) was “no major impact on DNA synthesis”.
